Measurements from US20060100153A1, “HSulf-1 nucleic acids, polypeptides and methods of using” (Mayo Foundation for Medical Education and Research, a …, priority 2003, published 2006).
Where a SMILES comes first, the peptide text is derived from it. The star is where a group is joined. Cbz = O=C(OCc1ccccc1)*; CH2F = FC*

What was measured:
[1] = tested on: Hep3B and Huh-7-derived clones; assay: Cisplatin-induced apoptosis in Hep3B and Huh-7 derived clones; assay type: cell-based; conditions: hSulf1-transfected vs Vector stable clones; 5 μM cisplatin
Experimental: Detection and quantitation of apoptosis: Apoptosis was quantitated by assessing nuclear changes indicative of apoptosis (i.e., chromatin condensation and nuclear fragmentation) using the DNA binding dye DAPI as described by Roberts et al. (supra). Cells were seeded in 35-mm plates at 2×10^5 cells per well. After incubation for 24 hours, the plates were washed, changed to serum free medium containing 1 μM staurosporine, and incubated for 5 hours at 37° C. Five micrograms of DAPI were added and the plates were incubated for 20 minutes at room temperature in the dark. The cells were then examined by fluorescence microscopy (Nikon Eclipse TE200; […] For each treatment, at least 300 cells in six different high-power fields were counted. […] For experiments using cisplatin, cells cultured in medium with 10% serum were treated with or without 5 μM cisplatin for 24 hours, then stained with DAPI and counted.

SKOV3 cells = assay: Analysis of apoptosis (DAPI fluorescence microscopy, DNA fragmentation, 7-AAD flow cytometry, cytochrome c) in SKOV3 cells; assay type: cell-based; design: apoptosis, % of cells: dose or concentration left out as unconfirmed
Experimental: Analysis of Apoptosis: […] HSulf-1 transfected SKOV3 cells were seeded in 35-mm plates at a density of 2×10^5 cells/well. After incubation at 37° C. for 24 hours, the plates were washed and changed to serum-free medium. Staurosporine was added to a final concentration of 1 μm for 5 hours. DAPI was then added to each well. After a 20 minute incubation at room temperature in the dark, cells were examined by fluorescence microscopy (Nikon Eclipse TE200; Nikon Corp., Tokyo, Japan) using excitation and emission filters of 380 and 430 nm. An individual blinded to the experimental conditions counted at least 300 cells in six different high-power fields for each treatment. Each treatment was repeated at least three times in triplicate. […] The significance of differences between experimental variables was determined using the Student t test. DNA Fragmentation: Parental, vector and stable HSulf-1 clones 3 and 6 were treated with 1 μM staurosporine at 37° C. for 5 hours. Control or treated cells (5×10^5 cells) were harvested with trypsin and centrifuged. DNA was extracted using the Qiagen […]® kit. Aliquots containing 5 μg of DNA were resolved on a 1.5% agarose gel containing 0.5 μg/ml ethidium bromide and visualized under UV light. Flow Cytometry: After treatment with 1 μM staurosporine for 5 hours as described above, cells were washed twice in ice cold PBS containing 3% heat-inactivated fetal bovine serum and 0.02% sodium azide, stained with 7-aminoactinomycin D (7-AAD; 50 μg/ml) for 15 minutes in the dark, resuspended in 500 μl PBS, and subjected to flow cytometry on a FACScan analyzer (BD Bioscience, San Jose, Calif.). After analysis of 10,000 events, the percentage of 7-AAD positive cells was determined. Analysis of Cytosolic Cytochrome c: Parental SKOV3, stable clones of SKOV3-vector, and SKOV3-HSulf-1 clones 3 and 6 were treated with staurosporine as described above, washed in PBS, and incubated for 30 seconds in lysis buffer consisting of 210 mM D-mannitol, 70 mM sucrose, 10 mM HEPES, 5 mM sodium succinate, 0.2 mM EGTA, 0.15% BSA and 80 μg/ml digitonin. After sedimentation at 12,000×g for 1 minute, the supernatant was diluted with an equal volume of 2×sample buffer. The protein samples were quantified, resolved on a 12% SDS-PAGE gel, and subjected to immunoblot analysis as described below using anti-cytochrome c (mouse monoclonal; BD Pharmingen, San Diego, Calif.) at a dilution of 1:500.

OV207 clones = assay: Drug sensitivity of OV207 clones transfected with HSulf-1; assay type: cell-based
[2] = tested on: SNU182, SNU475 and SNU449 HCC cell lines; assay: Detection and quantitation of apoptosis in SNU449, SNU182 and SNU475 HCC cell lines; assay type: cell-based; conditions: for cisplatin-induced apoptosis: 5 μM, 24 hours; for staurosporine-induced apoptosis: 1 μM, 5 hours
Experimental: Detection and quantitation of apoptosis: Apoptosis was quantitated by assessing nuclear changes indicative of apoptosis (i.e., chromatin condensation and nuclear fragmentation) using the DNA binding dye DAPI as described by Roberts et al. (supra). Cells were seeded in 35-mm plates at 2×10^5 cells per well. After incubation for 24 hours, the plates were washed, changed to serum free medium containing 1 μM staurosporine, and incubated for 5 hours at 37° C. Five micrograms of DAPI were added and the plates were incubated for 20 minutes at room temperature in the dark. The cells were then examined by fluorescence microscopy (Nikon Eclipse TE200; […] For each treatment, at least 300 cells in six different high-power fields were counted. […] For experiments using cisplatin, cells cultured in medium with 10% serum were treated with or without 5 μM cisplatin for 24 hours, then stained with DAPI and counted. Flow cytometry also was used to evaluate apoptosis. After a 5 hour treatment with 1 μM staurosporine as described above, cells were collected by centrifugation and washed twice in ice-cold PBS with 3% heat-inactivated FBS and 0.02% sodium azide. Cells were stained with 50 μg/ml 7-AAD for 15 minutes in the dark. The cells were resuspended in 500 μl PBS and analyzed using a FACScan analyzer (BD Bioscience). Apoptotic cells were calculated as percent of 7-AAD positive cells in 5,000 or more cells per sample. Immunoblot analysis for mitochondrial cytochrome c release: Immunoblot analysis for cytochrome c utilized cytosolic extracts prepared by selective digitonin permeabilization (Leist et al. (1998) Mol. Pharmacol. 54:789-801). Blots were probed with mouse monoclonal anti-cytochrome c antibody (BD Pharmingen) or mouse anti-β-actin antibody. For caspase 9, whole-cell lysates were prepared as described above for the sulfatase assay. Membranes were probed with mouse anti-procaspase 9 or mouse anti-β-actin antibody. Immunoblots were developed using ECL enhanced chemiluminescence reagents after incubation with horseradish peroxidase-conjugated secondary antibodies.

012SCC cells = assay: Analysis of apoptosis (DAPI, 7-AAD flow cytometry) in 012SCC cells; assay type: cell-based; conditions: 1 μM, 5 hours
Experimental: Analysis of Apoptosis: Apoptosis was quantitated by assessing the number of cells containing nuclear changes indicative of apoptosis (chromatin condensation and nuclear fragmentation) after staining with DAPI. HSulf-1 transfected 012SCC cells were seeded in 35-mm plates at a density of 2×10^5 cells/well. After incubation at 37° C. for 24 hours, the plates were washed and changed to serum-free medium. […] After a 5 hour incubation for staurosporine and a 24 hour incubation for cisplatin at 37° C., DAPI was added to each well at a final concentration of 5 μg/ml. After a 20 minutes incubation in the dark at 37° C., cells were examined by fluorescence microscopy (Nikon Eclipse TE200; Nikon Corp., Tokyo, Japan) using excitation and emission filters of 380 and 430 nm. An individual blinded to the experimental conditions counted at least 300 cells in six different high-power fields for each treatment. Each treatment was repeated at least three times, performed in triplicate each time. The significance of differences between experimental variables was determined using the Student t test. Detection of Apoptosis by Flow Cytometry: HSulf-1-1 or vector transfected 012SCC cells were collected by centrifugation from untreated control and staurosporine treated cells. […] The cells were then resuspended in 500 μl of PBS and analyzed by FACScan (BD Bioscience). […]

cancer cells = conditions: previous studies; cited from earlier work
xenografts = conditions: in vivo, previous studies; cited from earlier work
hSulf1 expression = assay: Treatment with DNA methylation inhibitor, semi-quantitative RT-PCR of hSulf1; assay type: cell-based; conditions: SNU449 and Huh-7 cell lines; increasing concentrations (0, 5, or 10 μM), 5 days
Experimental: Isolation of total RNA, semi-quantitative RT-PCR, and quantitative real-time PCR: Total RNA was extracted from 31 pairs of matched HCCs and adjacent benign liver tissue and the 11 HCC cell lines using the RNEASY® kit (Qiagen). cDNA synthesis was performed using SUPERSCRIPT® II RNase H reverse transcriptase (Invitrogen/Life Technologies) to transcribe 1-5 μg of total RNA primed with 1 μl of 500 μg/ml random hexamers. Primers used for semi-quantitative RT-PCR were: hSulf1-F (5′-[…]-3′; […]) and hSulf1-R (5′-[…]-3′; SEQ ID NO:14), yielding an 826 bp PCR product; GAPDH-F (5′-[…]-3′; SEQ ID NO:15) and GAPDH-R (5′-[…]-3′; SEQ ID NO:16). […] For quantitative real-time PCR analysis of HCC tumors, the hSulf1 primers were hSulf1RT-F (5′- […]-3′; SEQ ID NO:39) and hSulf1RT-R (5′-[…]-3′; SEQ ID NO:40), yielding a 379 bp PCR product. Real-time PCR was performed according to the manufacturer's recommendation in a Roche LightCycler using the following profile: 95° C. for 90 seconds followed by 34 cycles of 0 seconds at 95° C., 10 seconds at 61° C., and 20 seconds at 72° C. hSulf1 mRNA levels were normalized by comparison to 18S ribosomal RNA levels measured in the same samples. […]
Treatment with the DNA methylation inhibitor, 5-aza-2′-deoxycytidine. […] RNA (2 μg) was reverse transcribed as described above and semi-quantitative RT-PCR performed as described. […]

N.N.[Cl][Pt][Cl] [cisplatin]
cisplatin-induced apoptosis [1]: increasing sensitivity | apoptosis, % of cells (SKOV3 cells; HSulf-1-transfected cells, cisplatin, 24 hours): 25-40% | induction of apoptosis (SKOV3 cells; parental or vector-transfected cells, cisplatin, 24 hours): little apoptosis | sensitivity to drug (OV207 clones): increased sensitivity | cisplatin-induced apoptosis ([2]; SNU182 and three hSulf1-transfected stable clones): high sensitivity | cisplatin-induced apoptosis ([2]; parental SNU449 and SNU449-Vector): resistant

COC(=O)CC(NC(=O)C(C)NC(=O)C(NC(=O)OCc1ccccc1)C(C)C)C(=O)CF (stereo not drawn) [Z-VAD(O-Me)-fmk, N-(N^α-benzyloxycarbonylvalinylalanyl) aspartic acid (O-methyl ester) fluoromethylketone] (Cbz-Val-Ala-Asp(OMe)-CH2F; configuration not given here)
effect on staurosporine-induced apoptosis ([2]; 40 μM pretreatment for 1 hour before staurosporine): inhibited staurosporine-induced apoptosis

CN[C@@H]1C[C@H]2O[C@@](C)([C@@H]1OC)n1c3ccccc3c3c4c(c5c6ccccc6n2c5c31)C(=O)NC4 [staurosporine]
induction of apoptosis (SKOV3 cells; SKOV3 clones stably transfected with HSulf-1, 1 μM, 5 hours): markedly enhanced caspase-dependent apoptosis | induction of apoptosis (SKOV3 cells; parental or vector-transfected SKOV3, 1 μM, 5 hours): no induction of apoptosis | apoptosis, % of cells (012SCC cells; HSulf-1-transfected cells): 40% | induction of apoptosis (012SCC cells; parental or vector-transfected cells): little apoptosis | sensitivity to drug (OV207 clones): increased sensitivity | staurosporine-induced apoptosis ([2]; SNU182 and SNU475 (high hSulf1-expressing)): large increase in apoptosis | staurosporine-induced apoptosis ([2]; hSulf1 negative parental SNU449 and SNU449-Vector): minimal sensitivity | staurosporine-induced apoptosis ([2]; three hSulf1-transfected SNU449 clones): high sensitivity

COc1cc2ncnc(Nc3ccc(F)c(Cl)c3)c2cc1OCCCN1CCOCC1 [Iressa]
sensitization to chemotherapeutic drugs in vitro (cancer cells): sensitizes cancer cells to cisplatin, paclitaxel and topotecan | response of xenografts to combination (xenografts): enhance response of xenografts to cisplatin or paclitaxel

COc1cccc(-c2cc(=O)c3ccccc3o2)c1N [PD98059]
sensitization to chemotherapeutic drugs in vitro (cancer cells): sensitizes a variety of cell lines, including ovarian cancer cell lines, to cisplatin and paclitaxel

Nc1ncn([C@H]2C[C@H](O)[C@@H](CO)O2)c(=O)n1 [5-aza-2′-deoxycytidine]
hSulf1 expression (hSulf1 expression): reactivation of hSulf1 expression
